Tests used:
[1] = Solubility of anion free macrocycle in studied solvent systems; assay type: physicochemical; conditions: anion free form; chloroform, methanol, DMSO, acetonitrile, water or the mixtures of these solvents
Experimental: Dodecamethylbambus[6]uril-HI complex (0.5 g) was dissolved in the mixture of chloroform (50 ml) and methanol (50 ml). 30% H2O2 (0.25 ml) was added and the solution was stirred at room temperature for 24 h. The resulting white precipitate was collected by filtration and washed with equimolar mixture of chloroform and methanol. […] When tetrabutylammonium bearing bromide, iodide, and tetrafluoroborate anions is added to the suspension of obtained white powder in equimolar mixture of chloroform and methanol the immediate formation of transparent solution was observed. ^1H NMR spectra of the solutions correspond to the spectra of the complex between dodecamethylbambus[6]uril and corresponding anion.
Titanium dioxide powder (Aeroxide P25, typically 0.1 mg) was suspended in a solution of dodecamethylbambus[6]uril-HI complex (5.0 mM) in acetonitrile/water (1:1, 0.5 mL) in a standard quartz UV cuvette. The mixture was purged with oxygen for 5 min and irradiated at either wave lengths 254 or 366 nm. After 4 h white precipitated of anion free dodecamethylbambus[6]uril was obtained in 87% yield. […]

[2] = 1H NMR competition of dodecamethylbambus[6]uril-HCl complex with tetrabutylammonium iodide, association constant; assay type: binding; conditions: CD3OD:CDCl3=2:1, equimolar mixture, overall concentration 5 mM
Experimental: (§1) Equimolar mixture of dodecamethylbambus[6]uril-HCl complex and tetrabutylammonium bearing bromide, iodide, and tetrafluoroborate anions was dissolved in the mixture of CD3OD:CDCl3=2:1 to obtain solution in which overall concentration of dissolved solids was 5 mM. In all cases obtained ^1H NMR spectrum was identical with the spectrum of corresponding complex (see Example 20-22). As signals corresponding to dodecamethylbambus[6]uril-HCl complex were not observed the value of association constants for all complexes was calculated to be higher than 5×10^4 M^−1.

[3] = 1H NMR competition of dodecamethylbambus[6]uril-HCl complex with tetrabutylammonium tetrafluoroborate, association constant; assay type: binding; conditions: CD3OD:CDCl3=2:1, equimolar mixture, overall concentration 5 mM
Experimental: as §1

[4] = 1H NMR competition of dodecamethylbambus[6]uril-HCl complex with tetrabutylammonium bromide, association constant; assay type: binding; conditions: CD3OD:CDCl3=2:1, equimolar mixture, overall concentration 5 mM
Experimental: as §1

solubility of the anion free powder [1]: does not dissolve
SMILES: CN1C(=O)N(C)[C@@H]2[C@H]1N1CN3C(=O)N(CN4C(=O)N(CN5C(=O)N(CN6C(=O)N(CN7C(=O)N(CN2C1=O)[C@@H]1[C@H]7N(C)C(=O)N1C)[C@@H]1[C@H]6N(C)C(=O)N1C)[C@@H]1[C@H]5N(C)C(=O)N1C)[C@@H]1[C@H]4N(C)C(=O)N1C)[C@@H]1[C@H]3N(C)C(=O)N1C [dodecamethylbambus[6]uril, Dodecamethylbambus[6]uril]
association constant of complex with iodide anion [2]: higher than 5×10^4 M^−1
association constant of complex with tetrafluoroborate anion [3]: higher than 5×10^4 M^−1
association constant of complex with bromide anion [4]: higher than 5×10^4 M^−1

Source: patent US8779120B2, “Macrocyclic derivatives of glycolurils, and methods of preparing and using the same” (Masarykova Univerzita, priority 2009, dated 2014)
